The supplement of paper PMC10307832

Columns and labels:
Assay in all cases: relative viability (nuclei count vs DMSO), 5 days (fraction); higher = more cells survive
Sunitinib = compound: CCN(CC)CCNC(=O)c1c(C)[nH]c(/C=C2\C(=O)Nc3ccc(F)cc32)c1C [Sunitinib]
How it was run: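 Following overnight incubation at 37 °C, lung cancer cell lines in 1536-well plates were pinned with five library-drug doses (not always all listed) in √10 steps on vehicle-anchored plates. The cells then spent 5 days without medium change before a combined fix, permeabilisation and Hoechst stain, 4× imaging and MetaXpress nuclear counts. Viability is the treated-to-vehicle ratio of nuclei, taken as the median across plates. Only plates with control CV below 25% and at least one doubling passed.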

Sunitinib + Trametinib = compound: CCN(CC)CCNC(=O)c1c(C)[nH]c(/C=C2\C(=O)Nc3ccc(F)cc32)c1C [Sunitinib] + CC(=O)Nc1cccc(-n2c(=O)n(C3CC3)c(=O)c3c(Nc4ccc(I)cc4F)n(C)c(=O)c(C)c32)c1 [Trametinib] (partner 0.02 µM)
How it was run: (§1)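 Lung cancer cell lines were pin-tool dosed in 1536-well plates on the day after seeding, with either a lone drug or a fixed anchor-drug dose plus five library-drug doses (not always all listed) in √10 steps. Nuclei were counted on 4× images after 5 days. Relative viability is the ratio of treated-well to vehicle-well nuclei counts, with each value a median of duplicate plates.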

Sunitinib + OSI-027 = compound: CCN(CC)CCNC(=O)c1c(C)[nH]c(/C=C2\C(=O)Nc3ccc(F)cc32)c1C [Sunitinib] + COc1cccc2cc(-c3nc([C@H]4CC[C@H](C(=O)O)CC4)n4ncnc(N)c34)[nH]c12 [OSI-027] (partner 0.5 µM)
How it was run: as §1

Sunitinib + Phenformin = compound: CCN(CC)CCNC(=O)c1c(C)[nH]c(/C=C2\C(=O)Nc3ccc(F)cc32)c1C [Sunitinib] + N=C(N)NC(=N)NCCc1ccccc1 [Phenformin] (partner 250 µM)
How it was run: as §1

Row | Cell Line | relative viability (Sunitinib; 0.02 µM) | relative viability (Sunitinib; 0.06325 µM) | relative viability (Sunitinib; 0.2 µM) | relative viability (Sunitinib; 0.6325 µM) | relative viability (Sunitinib; 2 µM) | relative viability (Sunitinib + Trametinib; first compound 0.02 µM) | relative viability (Sunitinib + Trametinib; first compound 0.06325 µM) | relative viability (Sunitinib + Trametinib; first compound 0.2 µM) | relative viability (Sunitinib + Trametinib; first compound 0.6325 µM) | relative viability (Sunitinib + Trametinib; first compound 2 µM) | relative viability (Sunitinib + OSI-027; first compound 0.02 µM) | relative viability (Sunitinib + OSI-027; first compound 0.06325 µM) | relative viability (Sunitinib + OSI-027; first compound 0.2 µM) | relative viability (Sunitinib + OSI-027; first compound 0.6325 µM) | relative viability (Sunitinib + OSI-027; first compound 2 µM) | relative viability (Sunitinib + Phenformin; first compound 0.02 µM) | relative viability (Sunitinib + Phenformin; first compound 0.06325 µM) | relative viability (Sunitinib + Phenformin; first compound 0.2 µM) | relative viability (Sunitinib + Phenformin; first compound 0.6325 µM) | relative viability (Sunitinib + Phenformin; first compound 2 µM)
1 | 201T | 0.938 | 0.999 | 1.02 | 0.989 | 0.987 | 0.704 | 0.75 | 0.739 | 0.717 | 0.697 | 0.663 | 0.778 | 0.904 | 0.733 | 0.654 | 0.444 | 0.468 | 0.496 | 0.468 | 0.434
2 | A549 | 0.945 | 1.1 | 1.23 | 1.06 | 0.972 | – | – | – | – | – | – | – | – | – | – | 0.166 | 0.214 | 0.148 | 0.126 | 0.155
3 | A-427 | 0.981 | – | 1.05 | 1.07 | 1.06 | 0.759 | 0.758 | 0.893 | 0.821 | 0.728 | 0.445 | 0.49 | 0.448 | 0.537 | 0.392 | 0.263 | 0.383 | 0.315 | 0.301 | 0.279
4 | ABC-1 | 1.03 | 1.23 | 1.06 | 1.02 | 1.01 | – | – | – | – | – | 0.43 | 0.604 | 0.494 | 0.685 | 0.504 | 0.218 | 0.254 | 0.218 | 0.242 | 0.225
5 | BEN | 0.85 | 0.97 | 0.988 | 0.973 | – | 0.9 | – | 1.06 | 1.08 | 1.05 | 0.306 | 0.32 | 0.281 | 0.3 | 0.273 | 0.277 | 0.266 | 0.267 | 0.275 | 0.265
6 | CAL-12T | 0.908 | 1.03 | 1.11 | 1.13 | 1.03 | 0.322 | 0.356 | 0.4 | 0.407 | 0.268 | 0.665 | 0.695 | 0.748 | – | 0.397 | 0.515 | 0.648 | 0.591 | 0.702 | 0.518
7 | COR-L23 | 0.951 | 1.08 | 1.15 | 1.2 | 1.1 | 0.466 | 0.57 | 0.548 | 0.656 | 0.547 | 0.73 | 0.829 | 0.889 | 0.878 | 0.779 | 0.421 | 0.482 | 0.469 | 0.443 | 0.461
8 | COR-L 105 | 0.876 | 1.05 | 0.952 | – | 0.889 | 0.45 | 0.465 | 0.452 | 0.469 | 0.44 | 0.626 | 0.734 | 0.779 | 0.987 | 0.767 | 0.415 | 0.544 | 0.496 | 0.49 | 0.471
9 | ChaGo-K-1 | 0.987 | 1.01 | 1.04 | 1.06 | 1.04 | 0.814 | 0.919 | 0.977 | 0.889 | 0.888 | 0.494 | 0.685 | 0.577 | 0.663 | 0.579 | 0.409 | 0.543 | 0.508 | 0.516 | 0.488
10 | EKVX | 0.974 | 1.01 | 1.14 | 1.12 | 1 | 0.314 | 0.357 | 0.412 | 0.345 | 0.298 | 0.671 | 0.728 | 0.771 | 0.741 | 0.666 | 0.242 | 0.234 | 0.236 | 0.256 | 0.248
11 | EMC-BAC-2 | 0.935 | 1.11 | 1.18 | 1.01 | 1.07 | 0.868 | 0.932 | 0.966 | 0.99 | 1.12 | 0.372 | 0.41 | 0.423 | 0.4 | 0.502 | 0.489 | 0.566 | 0.595 | 0.559 | 0.543
12 | EPLC-272H | 0.841 | 1.07 | 0.939 | 0.98 | 0.795 | 0.253 | 0.271 | 0.287 | 0.283 | 0.288 | 0.336 | 0.318 | 0.302 | 0.29 | 0.291 | 0.335 | 0.334 | 0.324 | 0.313 | 0.263
13 | H3255 | 0.94 | 0.902 | – | 1.02 | 0.988 | 0.611 | 0.658 | 0.652 | 0.614 | 0.597 | 0.66 | 0.583 | 0.645 | 0.621 | 0.666 | 0.4 | 0.383 | 0.344 | 0.411 | 0.365
14 | HARA | 0.966 | 1.16 | 1.03 | 0.987 | – | 0.599 | 0.976 | 0.841 | 0.943 | 0.707 | 0.447 | 0.566 | 0.655 | 0.489 | 0.399 | 0.478 | 0.495 | 0.484 | 0.399 | 0.43
